Measured values: US8822486B2, “Spiropiperidine compounds” (Eli Lilly and Company, priority 2009, dated 2014)

Biological target: T1, PPARγ (Homo sapiens, UniProt P37231)
T1 sequence (P37231 1-505): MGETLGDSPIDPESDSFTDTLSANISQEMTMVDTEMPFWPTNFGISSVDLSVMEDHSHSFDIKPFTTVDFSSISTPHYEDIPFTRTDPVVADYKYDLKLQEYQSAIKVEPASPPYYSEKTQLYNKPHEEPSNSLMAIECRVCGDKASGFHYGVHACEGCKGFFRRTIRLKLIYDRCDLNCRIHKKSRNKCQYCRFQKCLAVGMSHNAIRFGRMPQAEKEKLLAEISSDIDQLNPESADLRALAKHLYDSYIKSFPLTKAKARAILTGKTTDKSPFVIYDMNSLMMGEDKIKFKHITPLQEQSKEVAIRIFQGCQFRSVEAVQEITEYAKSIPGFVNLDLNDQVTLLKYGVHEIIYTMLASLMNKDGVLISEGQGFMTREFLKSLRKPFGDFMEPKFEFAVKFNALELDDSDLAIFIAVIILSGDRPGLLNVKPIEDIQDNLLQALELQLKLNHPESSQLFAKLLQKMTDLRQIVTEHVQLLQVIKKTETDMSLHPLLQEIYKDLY
T1 sequence (P19793 1-462 partner): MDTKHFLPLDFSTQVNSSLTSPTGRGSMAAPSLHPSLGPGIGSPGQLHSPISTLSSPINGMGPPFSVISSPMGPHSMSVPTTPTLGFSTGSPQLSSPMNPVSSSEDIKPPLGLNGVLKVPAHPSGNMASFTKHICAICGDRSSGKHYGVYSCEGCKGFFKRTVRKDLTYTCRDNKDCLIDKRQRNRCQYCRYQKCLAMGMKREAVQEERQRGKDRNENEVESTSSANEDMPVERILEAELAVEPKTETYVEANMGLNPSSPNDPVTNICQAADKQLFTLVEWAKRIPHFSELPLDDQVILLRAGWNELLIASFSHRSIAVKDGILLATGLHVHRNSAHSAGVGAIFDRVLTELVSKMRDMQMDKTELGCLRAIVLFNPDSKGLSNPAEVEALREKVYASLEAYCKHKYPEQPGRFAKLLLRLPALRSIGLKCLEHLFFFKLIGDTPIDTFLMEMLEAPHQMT
Assay: PPARγ reporter functional assay in CV1 cells
Assay type: cell-based
Settings: examined up to 10 μM, luciferase reporter, 24 hours
Text: Gal4 PPARα, Gal4 PPARδ, and PPARγ reporter functional assays are also used to monitor the selectivity of exemplified compounds. CV1 cells, which are derived from the renal tissue of an African green monkey, are transfected with various receptor and reporter plasmids using Fugene. For the Gal4 PPARα and PPARδ assays, a reporter plasmid containing five tandem copies of the yeast transcription protein Gal4 response element, cloned upstream of a firefly luciferase gene driven by the major late promoter of adenovirus, is transfected together with a Simian Virus 40 (SV40) driven plasmid constitutively expressing a hybrid protein containing the Gal4 DNA binding domain (DBD), and either the PPARα or PPARδ ligand binding. For the PPARγ assay, plasmids encoding PPARγ and RXRα, both driven by a cytomegalovirus (CMV) promoter are transfected together with a plasmid containing luciferase reporter cDNA driven by the TK promoter and a receptor response element (2×PPRE). Cells are transfected in T225 cm^2 cell culture flasks in DMEM media with 5% charcoal-stripped FBS. […] After 24 hours incubation with compounds, cells are lysed and luciferase activity is determined as a measure of receptor activation by luminescence. […] The maximum percent stimulation is determined versus maximum stimulation obtained with 10 μM of an appropriate PPAR agonist reference compound. […]

## CC#C[C@@H](CC(=O)O)c1ccc(OCc2ccc(CN3CCC4(C=Cc5ccccc54)CC3)s2)cc1 [Example 1, (3S)-3-[4-[[5-(Spiro[indene-1,4′-piperidine]-1′-ylmethyl)-2-thienyl]methoxy]phenyl]hex-4-ynoic acid]
  functional activation of PPARγ: No functional activation
